Assay [1] is described as follows: Activation of calcium influx into mouse splenocytes at 100 ug/ml relative to control. The assay is classed as functional, cell-based. The conditions noted are these: Splenocyte.
The next assay concerns Ehrlich. Put plainly: Induction of apoptosis in mouse Ehrlich carcinoma cells at 100 ug/ml. It is filed as functional, cell-based.

The source made the active and inactive calls. No cut-off for these calls is given here.

Take `C=C(CC[C@@H](C)[C@H]1CC[C@@]2(C(=O)O)C3=C(CC[C@]12C)[C@@]1(C)CC[C@H](O[C@@H]2OC[C@H](O)[C@H](O)[C@H]2O[C@@H]2O[C@H](CO)[C@H](O)[C@H](O)[C@H]2O)C(C)(C)[C@@H]1CC3)C(C)C`: the Activity in assay [1] was 130%.

Consider `CC(C)=CCC[C@@H](C)[C@H]1CC[C@@]2(C(=O)O)C3=C(CC[C@]12C)[C@@]1(C)CC[C@H](O[C@@H]2OC[C@H](O)[C@H](O)[C@H]2O[C@@H]2O[C@H](CO)[C@H](O)[C@H](O)[C@H]2O)C(C)(C)[C@@H]1CC3`, for which the Activity in assay [1] is 130%.

For the molecule `C=C(C)[C@@H](O)CC[C@@H](C)[C@H]1CC[C@@]2(C(=O)O)C3=C(CC[C@]12C)[C@@]1(C)CC[C@H](O[C@@H]2OC[C@H](O)[C@H](O)[C@H]2O[C@@H]2O[C@H](CO)[C@H](O)[C@H](O)[C@H]2O)C(C)(C)[C@@H]1CC3`, the result in the assay with Ehrlich was Active.
